The results in this text go back to patent US11696903B2, “Compounds and methods for scavenging dicarbonyl electrophiles” (VANDERBILT UNIVERSITY, priority 2019, dated 2023).

Test [1] has as its system LG-histone adducts in A549 cells. As to the kind of experiment: LG-lysyl adduct formation on histones in A549 cells (LC/ESI/MS/MS). The test is classed as cell-based, human. To be noted: stimulated A549, 30, 300 or 1000 μM EtSA, 20 μM AA 1 h. The procedure: FIGS. 11A, 11B, 11C, 11D, 11E, and 11F are a series of graphs showing that LG-lysine adducts of histones are found in cells and tissue, dependent on COX-2 activity. RAW264.7 mouse macrophage (A) and A549 human lung carcinoma (C) cells were stimulated to express COX-2, then given 20 μM arachidonic acid (AA) or vehicle. A subgroup of cells was preincubated 45 min with 50 μM indomethacin. As a measure of COX activity, PGE2 was determined by GC/MS from cell media prior to lysis (B and D). Nuclei were isolated, and histones were extracted and digested to individual amino acids prior to LC/EST/MS/MS analysis. *, p<0.05; ***, p<0.001 by ANOVA followed by Tukey's post-test (n≥5). (E). Histones were extracted from nuclei of rat liver, and analyzed as above for LG-lactam adduct. COX-2 protein was analyzed by Western blotting and plotted against lactam adduct levels. Each point corresponds to 1 liver, and shown is the line of regression (r^2=0.7237). Pearson r=0.8507; two-tailed p=0.0152. […]
(A). […] Histone proteins were analyzed by LC/ESI/MS/MS for LG-lysyl lactam adduct, n=2. (B) Stimulated A549 cells were pretreated with 30, 300, or 1000 μM EtSA prior to 1 h with 20 μM AA, and histones analyzed for LG-lysyl adduct. *, p<0.05 by one-way ANOVA followed by Dunnett's multiple comparisons post-test (n=3-5). […] Media was analyzed by GC/MS for PGE2 (n=3). […]

For test [2], the system named is mucosal immune responses. As to the kind of experiment: Gastritis and mucosal cytokines/chemokines in infected INS-GAS mice. The test is classed as in vivo. To be noted: EtSA. The procedure: (§1) As discussed further in the Examples, the human gastric epithelial cell line AGS was infected with Hp PMSS1±10 mM EtSA. FVB/N insulin-gastrin (INS-GAS) mice and Mongolian gerbils were infected for 8 wk with Hp PMSS1 and 7.13, respectively; EtSA (0.75% in water) was given to animals beginning one wk post-infection. Lys-LG adducts, a marker of electrophile reactions, and EtSA were quantified by LC/EST/MS/MS. Histology was analyzed on H&E staining. DNA damage was evaluated by pH2AX staining. Hp colonization was quantified by culture. Mucosal immune responses were determined by RNA profiling and by Luminex assay. Mice were imaged using PET/CT with ^18F-FDG (inflammation marker) and ^18F—NaF (tumor marker).

In test [3] the test system is lysyl-LG adducts. As to the kind of experiment: Lysyl-LG adducts in gastric tissues of H. pylori-infected mice (LC/ESI/MS/MS). The class given is in vivo. Conditions: EtSA 0.75% in water from one wk post-infection, 8 wk infection. The procedure: FIGS. 15A, 15B, and 15C are graphs showing C57BL/6 (A) or INS-GAS mice (B) were infected for 8 weeks with H. pylori PMSS1. Lysyl-LG adducts were measured in the gastric tissues by LC/ESI/MS/MS. *P<0.05. (C) Lysyl-LG adducts concentration was determined in AGS cells infected (plain bars) or not (open bars) with H. pylori PMSS1 for 24 h, in the presence or absence of EtSA. *P<0.05 vs. uninfected cells. § P<0.05 vs. infected cells without EtSA.
FIG. 17 is a graph showing reduction in the concentration of lysyl-levuglandin adducts in the stomachs of H. pylori infected mice treated with 2-hydroxybenzylamine for 8 weeks.
as §1, with “marker). […]” for “marker).”

Regarding `CCc1ccc(O)c(CN)c1` [EtHOBA, 5-ethyl-2-hydroxybenzylamine], the LG-histone adduct formation entry in test [1] was “inhibited”. Also, in test [2], the histologic gastritis entry was “not affected”; the “tissue cytokines and chemokines” value was “not affected”. Further, the “Lys-LG adducts in infected mice” value in test [3] is given as “completely inhibited”.
